Measured values published in US20070202179A1, “Low Dose Pharmaceutical Products” (priority 2004, published 2007).

Molecular target: T1, human PPAR alpha (Homo sapiens, UniProt Q07869)
T1 sequence (Q07869 1-468): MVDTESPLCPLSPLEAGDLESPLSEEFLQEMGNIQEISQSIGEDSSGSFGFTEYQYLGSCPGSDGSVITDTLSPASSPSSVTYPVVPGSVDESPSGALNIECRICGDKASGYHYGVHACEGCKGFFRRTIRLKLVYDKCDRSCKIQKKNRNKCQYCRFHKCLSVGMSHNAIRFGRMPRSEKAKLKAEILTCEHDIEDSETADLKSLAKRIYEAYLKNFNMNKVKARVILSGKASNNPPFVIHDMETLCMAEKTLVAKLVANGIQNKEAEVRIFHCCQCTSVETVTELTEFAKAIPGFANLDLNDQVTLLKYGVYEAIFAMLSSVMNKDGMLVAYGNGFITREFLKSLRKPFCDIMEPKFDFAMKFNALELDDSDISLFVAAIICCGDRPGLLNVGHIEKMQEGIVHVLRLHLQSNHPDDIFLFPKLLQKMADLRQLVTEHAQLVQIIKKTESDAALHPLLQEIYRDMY
Assay: Effectiveness of Compound 1 at very low daily dosage regimes
Assay type: in vivo
Details: investigated for dyslipidemia, syndrome X and atherosclerosis
Method: The compound of formula (1) is a particularly preferred PPAR alpha agonist and is described in WO 01/40207 as being of use in human PPAR alpha mediated diseases. The dosage regime contemplated in WO 01/40207 is 0.02-5000 mg per day. […] Thus the invention further provides a pharmaceutical composition comprising less than 1-100 μg Compound (1) or pharmaceutically acceptable salts, solvates and physiologically functional derivatives thereof together with a pharmaceutically acceptable carrier. Preferably the composition comprises less than 20 μg, more preferably 1-18 μg, most preferably 1-10 μg.

Dosage regime at which the compound is effective: less than 0.02 mg per day
Structure (SMILES): Cc1nc(-c2ccc(C(F)(F)F)cc2)sc1C(=O)NCc1ccc(OC(C)(C)C(=O)O)cc1 [Compound 1, 2-methyl-2-[4-{[(4-methyl-2-[4-trifluoromethylphenyl]-thiazol-5-ylcarbonyl)amino]methyl}phenoxy]propionic acid]
